System: human iPS cell Toe strain
Assay: Effect to promote differentiation from human iPS cells into insulin-producing cells (insulin-positive cell rate, Reference Example 1)
Format: cell-based
Parameters: key to Activity: the sum of activity values at the two concentrations was obviously higher than the control untreated with compounds while being lower than the positive control was expressed as +; the sum was equivalent to the positive control was expressed as ++; the sum was higher than the positive control was expressed as +++
Settings: activity intensity: sum of activity values (increment in insulin-positive cell rate) at 2 μM and 10 μM compared with positive control (compound of Synthesis Example 1)
Source text: The evaluation system of the effect (efficacy) to promote differentiation from human iPS cells into insulin-producing cells was constructed with reference to known information (Non Patent Document 6). Further, the medium used in each differentiation stage was also produced with reference to known information (differentiation media A to E (Media A to E) described in Non Patent Document 6 were used respectively for stages 1 to 5; however, a medium free from GLP-1 receptor agonist and nicotinamide was used as differentiation medium E).
In order to evaluate the efficacy of each compound, the compound of Synthesis Example 1 was used as a positive control, and dimethylsulfoxide (DMSO) (SIGMA, D2650) with a final concentration of 0.1% was used as a control untreated with compounds. Each compound was dissolved in DMSO, and two types of compound solutions were prepared so as to have final concentrations of 2 μM and 10 μM after the compound was added to the medium. In the following evaluation, the compound solutions were added to the medium to 0.1% that is the final concentration of DMSO.
First, induction from human iPS cell Toe strain (National Institutes of Biomedical Innovation, Health and Nutrition) into cells on day 7 of culture (2 days after replacement with differentiation medium C (cells in the differentiation process from FOXA2-positive primitive gut tube cells into PDX1-positive pancreatic progenitor cells)) was performed according to the method of Non Patent Document 6 for “inducing differentiation from human iPS cells into pancreatic β cells”, and the cells were collected and thereafter stored in liquid nitrogen using Bambanker (NIPPON Genetics Co, Ltd.) at 1×10^7 cells/mL/tube, to produce a cell stock for evaluation. The cell stock was dissolved at the start of the evaluation of efficacy, suspended in differentiation medium C for stage 3 (DMEM high glucose (Life technologies, 11965092), 0.25 μM SANT-1, 0.1 μM LDN193189 (Stemgent, 04-0074), 10 μM SB431542, 2 μM Retinoic acid (Stemgent, 04-0021), 1% B27 serum free supplement (Life technologies, 17504044) and thereafter seeded in a 96-well plate (Corning, #3340) coated with Synthemax II (Corning, #5656) at 1×10^5 cells/well. After culturing for 2 days, the medium was removed, and new differentiation medium C for stage 3 with the compound or only DMSO added was added thereto at 100 μL/well. After culturing for 2 days, the medium was removed, and new differentiation medium D for stage 4 (DMEM high glucose, 0.1 μM LDN193189, 5 μM TGF-β type I receptor kinase inhibitor II (Calbiochem 616452), 0.3 μM (−)-indolactam V (Enzo life science ALX-420-011-C300), 1% B27 serum free supplement) with the compound or only DMSO added was added thereto at 100 μL/well. After culturing for 2 to 3 days, the medium was removed, and new differentiation medium E for stage 5 (GLP-1 receptor agonist and nicotinamide-free; Knockout […] (Life technologies, 12660012), 1% B27 serum free supplement) with the compound or only DMSO added was added thereto at 200 μL/well. After culturing for 2 days, the medium was removed, and a 4% paraformaldehyde phosphorus acid buffer (Wako, 163-20145) was added thereto at 150 μL/well and left standing for 30 to 60 minutes at room temperature to fix the cells. A phosphorus acid buffer (PBS) (Takara, T9181) containing 1% Triton X-100 (Sigma, T8787) was left standing for 15 minutes at room temperature, then washed with PBS-T (Takara, T9183), and was blocked for 1 hour using 20% Blocking One (Nacalai tesque, Tokyo, Japan) diluted with PBS-T at room temperature. After the removal of Blocking One, guinea pig anti-insulin antibody (Abcam, ab7842) diluted 200-fold with 20% Blocking One was added thereto at 50 μL/well, followed by standing at 4° C. overnight. […]

Row | Compound | Activity
1 | O=C1CCC(C(=O)Nc2ccc(-c3ccc(OC(F)(F)F)cc3)cn2)n2cccc21 (stereo not drawn) [Example 82] | +
2 | O=C1CCC(C(=O)Nc2ccc(-c3ccc(OC(F)(F)F)cc3)cc2)n2cccc21 (stereo not drawn) [Example 73] | +
3 | O=C1CCC(C(=O)Nc2ncc(-c3ccccc3F)s2)n2cccc21 (stereo not drawn) [Example 17] | ++
4 | NC(=O)c1ccc(-c2cnc(NC(=O)C3CCC(=O)c4cccn43)s2)cc1 (stereo not drawn) [Example 6] | +
5 | CN(C)S(=O)(=O)c1ccc(-c2cnc(NC(=O)C3CCC(=O)c4cccn43)s2)cc1 (stereo not drawn) [Example 42] | +
6 | O=C1CCC(C(=O)Nc2ccc3nc(-c4ccc(OC(F)(F)F)cc4)sc3c2)n2cccc21 (stereo not drawn) [Example 83] | +
7 | O=C1CCC(C(=O)Nc2ncc(-c3ccc(OCc4ccccc4)c(F)c3)s2)n2cccc21 (stereo not drawn) [Example 43] | +++
8 | CC(C)NC(=O)N1CC=C(c2cnc(NC(=O)C3CCC(=O)c4cccn43)s2)CC1 (stereo not drawn) [Example 98] | ++
9 | CC1(C(=O)Nc2ncc(-c3ccc(OC(F)(F)F)cc3)s2)CCC(=O)c2cccn21 (stereo not drawn) [Example 65] | +++
10 | N#Cc1ccc(-c2cnc(NC(=O)C3CCC(=O)c4cccn43)s2)cc1 (stereo not drawn) [Example 7] | +
11 | Cc1ccc(-c2cnc(NC(=O)C3CCC(=O)c4cccn43)s2)cc1 (stereo not drawn) [Example 18] | ++
12 | O=C1CCC(C(=O)Nc2ncc(C3=CCCCC3)s2)n2cccc21 (stereo not drawn) [Example 50] | +
13 | CC(=O)c1ccc(-c2cnc(NC(=O)C3CCC(=O)c4cccn43)s2)cc1 (stereo not drawn) [Example 57] | +
14 | O=C1CCC(C(=O)Nc2ncc(-c3cccc(Cl)c3)s2)n2cccc21 (stereo not drawn) [Example 13] | ++
15 | O=C1CCC(C(=O)Nc2ncc(-c3ccc4c(c3)OC(F)(F)O4)s2)n2cccc21 (stereo not drawn) [Example 40] | +++
16 | O=C1CCC(C(=O)Nc2ncc(-c3ccc(C(F)(F)F)cc3)s2)n2cccc21 (stereo not drawn) [Example 21] | +++
17 | O=C1CCC(C(=O)Nc2ncc(-c3ccc(OC(F)(F)F)c(CO)c3)s2)n2cccc21 (stereo not drawn) [Example 31] | +
18 | Cc1cc(-c2ccc(OC(F)(F)F)cc2)ccc1NC(=O)C1CCC(=O)c2cccn21 (stereo not drawn) [Example 81] | +
19 | CC(C)(C)Oc1ccc(-c2cnc(NC(=O)C3CCC(=O)c4cccn43)s2)cc1 (stereo not drawn) [Example 11] | +++
20 | Cc1nc(C)c(-c2cnc(NC(=O)C3CCC(=O)c4cccn43)s2)s1 (stereo not drawn) [Example 55] | +

Row | Compound | Activity
21 | CC(C)c1nc(NC(=O)C2CCC(=O)c3cccn32)sc1-c1ccc(OC(F)(F)F)cc1 (stereo not drawn) [Example 96] | +
22 | O=C1CCC(C(=O)Nc2ncc(-c3ccc(N4CCOCC4)cc3)s2)n2cccc21 (stereo not drawn) [Example 41] | +
23 | O=C1CCC(C(=O)Nc2nc3ccc(-c4ccc5c(c4)OC(F)(F)O5)cc3s2)n2cccc21 (stereo not drawn) [Example 61] | +
24 | O=C1CCC(C(=O)Nc2ncc(-c3ccccc3Cl)s2)n2cccc21 (stereo not drawn) [Example 14] | +
25 | CC(C)COc1ccc(-c2cnc(NC(=O)C3CCC(=O)c4cccn43)s2)cc1 (stereo not drawn) [Example 49] | +++
26 | O=C1CCC(C(=O)Nc2ncc(-c3ccccc3)s2)n2cccc21 (stereo not drawn) [Example 1] | ++
27 | CN(C)C(=O)c1ccc(-c2cnc(NC(=O)C3CCC(=O)c4cccn43)s2)cc1 (stereo not drawn) [Example 3] | +
28 | Cc1nc(NC(=O)C2CCC(=O)c3cccn32)sc1-c1ccc(OC(F)(F)F)cc1 (stereo not drawn) [Example 36] | +++
29 | Cc1ccc(-c2ccc(-c3cnc(NC(=O)C4CCC(=O)c5cccn54)s3)cc2)cc1 (stereo not drawn) [Example 23] | +
30 | O=C1CCC(C(=O)Nc2ncc(-c3ccc(Br)cc3)s2)n2cccc21 (stereo not drawn) [Example 47] | ++
31 | O=C1CCC(C(=O)Nc2ncc(-c3ccc(Oc4ccccc4)cc3)s2)n2cccc21 (stereo not drawn) [Example 46] | +++
32 | O=C1CCC(C(=O)Nc2ncc(-c3cccc(OC(F)(F)F)c3)s2)n2cccc21 (stereo not drawn) [Example 25] | +++
33 | CC(C)Oc1ccc(-c2cnc(NC(=O)C3CCC(=O)c4cccn43)s2)cc1 (stereo not drawn) [Example 33] | +++
34 | COc1cccc(-c2cnc(NC(=O)C3CCC(=O)c4cccn43)s2)c1 (stereo not drawn) [Example 27] | ++
35 | Cc1cccc(-c2cnc(NC(=O)C3CCC(=O)c4cccn43)s2)c1 (stereo not drawn) [Example 20] | ++
36 | O=C(O)c1ccc(-c2cnc(NC(=O)C3CCC(=O)c4cccn43)s2)cc1 (stereo not drawn) [Example 5] | +
37 | CC1(C(=O)Nc2ncc(-c3ccc4c(c3)OC(F)(F)O4)s2)CCC(=O)c2cccn21 (stereo not drawn) [Example 68] | ++
38 | CC(C)(C)Oc1ccc(-c2ccc(NC(=O)C3CCC(=O)c4cccn43)c(F)c2)cc1 (stereo not drawn) [Example 80] | +
39 | Cc1cc(-c2sc(NC(=O)C3CCC(=O)c4cccn43)nc2C)ccc1OC(F)(F)F (stereo not drawn) [Example 89] | +++
40 | Cc1ccc(-c2cnc(NC(=O)C3CCC(=O)c4cccn43)s2)o1 (stereo not drawn) [Example 54] | +

Row | Compound | Activity
41 | O=C1CCC(C(=O)Nc2ncc(-c3ccc(OCc4ccccc4)cc3F)s2)n2cccc21 (stereo not drawn) [Example 44] | +
42 | O=C1CCC(C(=O)Nc2ncc(-c3ccc(OCc4ccccc4)cc3)s2)n2cccc21 (stereo not drawn) [Example 32] | +++
43 | O=C1CCC(C(=O)Nc2ncc(-c3ccc(CO)cc3)s2)n2cccc21 (stereo not drawn) [Example 37] | +
44 | O=C1CCC(C(=O)Nc2ncc(-c3ccc(Cl)cc3)s2)n2cccc21 (stereo not drawn) [Example 12] | ++
45 | COc1ccc(-c2cnc(NC(=O)C3CCC(=O)c4cccn43)s2)cc1 (stereo not drawn) [Example 26] | ++
46 | CC(C)(C)OC(=O)Oc1ccc(-c2cnc(NC(=O)C3CCC(=O)c4cccn43)s2)cc1 (stereo not drawn) [Example 48] | +
47 | O=C1CCC(C(=O)Nc2ccc(-c3ccc4c(c3)OC(F)(F)O4)cc2)n2cccc21 (stereo not drawn) [Example 74] | +
48 | O=C1CCC(C(=O)Nc2ncc(-c3ccc4c(c3)OCO4)s2)n2cccc21 (stereo not drawn) [Example 4] | ++
49 | O=C1CCC(C(=O)Nc2nc3ccc(-c4ccc(Cl)cc4)cc3s2)n2cccc21 (stereo not drawn) [Example 93] | +++
50 | O=C1CCC(C(=O)Nc2ccc(-c3ccc(OC(F)(F)F)c(Cl)c3)cc2F)n2cccc21 (stereo not drawn) [Example 79] | +
51 | Cc1nc(NC(=O)C2CCC(=O)c3cccn32)sc1-c1ccc(OCC(F)(F)F)cc1 (stereo not drawn) [Example 88] | +++
52 | Cc1nc(NC(=O)C2CCC(=O)c3cccn32)sc1-c1ccc(OC(C)(C)C)cc1 (stereo not drawn) [Example 35] | +++
53 | Cc1nc(NC(=O)C2CCC(=O)c3cccn32)sc1C1=CCN(C(=O)OC(C)(C)C)CC1 (stereo not drawn) [Example 90] | +++
54 | CC(C)C(=O)N1CC=C(c2cnc(NC(=O)C3CCC(=O)c4cccn43)s2)CC1 (stereo not drawn) [Example 97] | ++
55 | Cc1nc(NC(=O)C2CCC(=O)c3cccn32)sc1-c1ccc(OC(F)F)cc1 (stereo not drawn) [Example 91] | +++
56 | CC(C)Oc1ccc(-c2cnc(NC(=O)C3(C)CCC(=O)c4cccn43)s2)cc1 (stereo not drawn) [Example 69] | ++
57 | Cc1cccc(-c2cnc(NC(=O)C3(C)CCC(=O)c4cccn43)s2)c1 (stereo not drawn) [Example 67] | ++
58 | COC(=O)c1nc(NC(=O)C2CCC(=O)c3cccn32)sc1-c1ccc(OCC(F)(F)F)cc1 (stereo not drawn) [Example 99] | ++
59 | Cc1ccccc1-c1cnc(NC(=O)C2CCC(=O)c3cccn32)s1 (stereo not drawn) [Example 19] | ++
60 | O=C1CCC(C(=O)Nc2ncc(-c3ccc(OC(F)F)cc3)s2)n2cccc21 (stereo not drawn) [Example 39] | +++

— US20220339260A1, “METHOD FOR PRODUCING INSULIN-PRODUCING CELL USING DIHYDROINDOLIZINONE DERIVATIVES” (TOKYO INSTITUTE OF TECHNOLOGY, priority 2019, published 2022)
